Here are results for 25 compounds from patent publication US9896440B2, “Aryl substituted heterocyclyl sulfones” (GRÜNENTHAL GMBH, priority 2014, dated 2018).

The target of the first assay is T1, Human CaV2.2 channels (Homo sapiens, UniProt Q00975).
T1 construct: expressed in transfected cells; Kir2.3 also stably co-expressed
T1 sequence (Q00975 whole entry): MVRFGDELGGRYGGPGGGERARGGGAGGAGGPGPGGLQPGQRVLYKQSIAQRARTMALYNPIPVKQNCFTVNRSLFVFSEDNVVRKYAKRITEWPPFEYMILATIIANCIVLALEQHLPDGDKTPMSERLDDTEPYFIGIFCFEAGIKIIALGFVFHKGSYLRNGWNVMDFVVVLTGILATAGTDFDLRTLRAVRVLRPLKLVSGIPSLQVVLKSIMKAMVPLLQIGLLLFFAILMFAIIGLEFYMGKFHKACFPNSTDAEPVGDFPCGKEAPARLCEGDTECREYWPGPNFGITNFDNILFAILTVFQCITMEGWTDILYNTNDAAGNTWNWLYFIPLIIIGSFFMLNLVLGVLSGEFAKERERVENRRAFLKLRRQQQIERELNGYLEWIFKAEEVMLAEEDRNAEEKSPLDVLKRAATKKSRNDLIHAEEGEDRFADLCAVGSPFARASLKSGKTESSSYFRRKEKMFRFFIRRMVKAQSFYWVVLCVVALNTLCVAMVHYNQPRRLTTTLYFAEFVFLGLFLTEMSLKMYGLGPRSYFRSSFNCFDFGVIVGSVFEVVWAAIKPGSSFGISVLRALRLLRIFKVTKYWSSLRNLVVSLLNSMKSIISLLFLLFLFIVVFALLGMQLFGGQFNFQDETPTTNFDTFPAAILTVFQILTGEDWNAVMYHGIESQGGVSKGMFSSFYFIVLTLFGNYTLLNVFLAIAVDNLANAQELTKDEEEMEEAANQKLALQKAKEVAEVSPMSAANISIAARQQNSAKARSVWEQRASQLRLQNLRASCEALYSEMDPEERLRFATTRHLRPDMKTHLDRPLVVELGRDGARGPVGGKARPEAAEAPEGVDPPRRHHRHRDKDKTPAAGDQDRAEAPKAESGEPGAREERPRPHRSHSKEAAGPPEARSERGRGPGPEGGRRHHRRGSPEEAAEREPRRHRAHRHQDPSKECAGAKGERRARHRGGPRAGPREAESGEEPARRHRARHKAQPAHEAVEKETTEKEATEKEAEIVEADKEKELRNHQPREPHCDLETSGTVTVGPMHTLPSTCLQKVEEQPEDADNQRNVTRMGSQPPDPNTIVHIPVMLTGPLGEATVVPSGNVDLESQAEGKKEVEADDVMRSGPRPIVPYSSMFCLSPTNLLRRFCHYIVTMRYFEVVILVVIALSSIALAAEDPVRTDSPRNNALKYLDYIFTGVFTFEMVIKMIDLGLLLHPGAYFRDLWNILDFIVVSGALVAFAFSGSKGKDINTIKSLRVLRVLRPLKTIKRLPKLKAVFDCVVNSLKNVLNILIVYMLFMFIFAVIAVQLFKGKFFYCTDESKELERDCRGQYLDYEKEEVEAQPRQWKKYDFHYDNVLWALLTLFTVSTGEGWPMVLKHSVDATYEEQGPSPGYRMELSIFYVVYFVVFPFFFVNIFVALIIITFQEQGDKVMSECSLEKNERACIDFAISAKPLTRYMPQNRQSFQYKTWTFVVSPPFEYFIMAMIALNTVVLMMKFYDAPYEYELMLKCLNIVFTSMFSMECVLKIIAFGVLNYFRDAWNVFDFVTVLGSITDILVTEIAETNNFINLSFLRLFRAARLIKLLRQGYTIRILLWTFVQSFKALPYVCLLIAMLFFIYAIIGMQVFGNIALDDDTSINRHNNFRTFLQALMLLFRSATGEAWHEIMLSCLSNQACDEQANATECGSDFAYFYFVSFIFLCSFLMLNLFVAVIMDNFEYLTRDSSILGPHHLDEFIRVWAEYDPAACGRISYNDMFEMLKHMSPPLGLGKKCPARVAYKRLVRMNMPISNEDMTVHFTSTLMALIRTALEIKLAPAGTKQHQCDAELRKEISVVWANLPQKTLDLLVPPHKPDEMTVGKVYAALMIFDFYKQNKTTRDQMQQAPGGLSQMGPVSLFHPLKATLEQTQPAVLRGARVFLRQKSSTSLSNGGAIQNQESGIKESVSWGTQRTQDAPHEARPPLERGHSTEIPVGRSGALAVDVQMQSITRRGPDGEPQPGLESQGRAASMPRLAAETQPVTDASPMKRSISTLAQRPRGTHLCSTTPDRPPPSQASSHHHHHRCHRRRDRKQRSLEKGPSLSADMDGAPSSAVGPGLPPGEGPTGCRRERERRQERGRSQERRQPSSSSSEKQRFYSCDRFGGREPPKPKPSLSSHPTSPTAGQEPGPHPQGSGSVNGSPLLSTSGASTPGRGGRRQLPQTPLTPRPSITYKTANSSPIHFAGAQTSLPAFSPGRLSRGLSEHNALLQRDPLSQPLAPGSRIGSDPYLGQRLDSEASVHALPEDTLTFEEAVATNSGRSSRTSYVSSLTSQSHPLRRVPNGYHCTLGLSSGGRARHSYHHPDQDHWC
The assay is described as follows: Fluorescence assay for CaV2.2 channels using potassium depolarization to induce channel opening (FLIPR, Fluo 4). To be noted: 3 μM test compound, 30 mM KCl assay buffer (inactivated channel state), HEK293 cells. The format is cell-based. An excerpt: In the process, the Ca^2+ influx is quantified in the FLIPR assay with the aid of a Ca^2+-sensitive dye (type Fluo-4, Molecular Probes Europe BV, Leiden, the Netherlands) in a fluorescent imaging plate reader (FLIPR 3, Molecular Devices, Sunnyvale, USA), as described hereinafter.
Human CaV2.2 channels were stably expressed in HEK293 cells together with alpha2-delta and beta subunits of voltage gated calcium channels. In addition, an inwardly rectifying potassium channel (Kir2.3) was stably expressed in these cells to augment control of the cell membrane potential by the concentration of extracellular potassium ions. Raise of the extracellular potassium concentration leads to depolarization of the membrane potential and thus regulates the voltage dependent state of CaV2.2 channels. For preparation, cells were seeded in black poly-D-lysine coated 96-well plates (Becton Dickinson, Biocoat 4640) in 100 μL medium [500 mL DMEM/F-12 plus Glutamax (Invitrogen 31331-093) plus 5.5 mL MEM NEAA 100× (Invitrogen 11140-035) plus 50 mL FBS decomplemented (Invitrogen 10270-106) plus 200 μg/mL Geneticin (Invitrogen 10131-027) plus 50 μg/mL Hygromycin B (Invitrogen 10687-010) plus 2 μg/mL Blasticidin (anti-bl5b Invivo-Gen) plus 0.2 μg/mL Puromycin (A 11138-03)] at a cell density of 30.000 cells per well. Plates were incubated at 37° C. (5% CO2) for 20 to 23 h. On the day of experiment medium was discarded and cells were loaded with Fluo 4 by addition of 100 μL of basic assay buffer (10 mM HEPES, 1 mM KCl, 149 mM NaCl, 0.8 mM CaCl2, 1.7 mM MgCl2, 10 mM Glucose, 0.1% BSA. pH 7.4) containing 2 μM Fluo 4 (Molecular Probes; F-14201), 0.01% pluronic acid (Molecular Probes; P-6866) and 2.5 mM probenecid (Molecular Probes; P36400). Cells were incubated in the dark at 25° C. for 60 min. Then dye containing buffer was discarded and 100 μL basic (1 mM KCl) or alternative (30 mM KCl) assay buffer was added. The alternative assay buffer contained altered concentrations of KCl (30 mM) and NaCl (120 mM) and was used in order to promote the inactivated channel state. After that 25 μL of basic or alternative assay buffer with or without test compound were added and cells were incubated again in the dark at 25° C. for 15 min. Fluorescence intensity was measured on a FLIPR 3 instrument (Molecular Devices Corp., Sunnyvale, Calif.) with excitation at 480 nm and emission at 535 nm. After continuously reading fluorescence for 30 sec, 50 μL of basic assay buffer containing 210 mM KCl (NaCl omitted) were added for depolarization. Peak fluorescent signal intensity was determined and the amplitude of the peak signal, normalized to base line, was used to measure channel inhibition by test compounds.
As for `CC1(S(=O)(=O)c2cccc(C(F)(F)F)c2)CCOC(c2ccc(S(C)(=O)=O)cc2)C1` (stereo not shown) [SC-113, 4-Methyl-2-(4-methylsulfonyl-phenyl)-4-[[3-(trifluoromethyl)phenyl]sulfonyl]-tetrahydro-pyran], the “Activity Category: %-Inhib (CaV2.2) @3 μM @30 mM KCl” value is on record as “B (%-Inhibition >75% up to ≦95%)”. Same read-out and setting: then `CC1(S(=O)(=O)c2cccc(C(F)(F)F)c2)CCOC(c2ccc(Cl)cc2S(C)(=O)=O)C1` (stereo not shown) [SC-115, 2-(4-Chloro-2-methylsulfonyl-phenyl)-4-methyl-4-[[3-(trifluoromethyl)phenyl]sulfonyl]-tetrahydro-pyran], with “A (%-Inhibition >95%)”; and `CC1(c2ccc(Cl)cc2)CC(S(=O)(=O)c2cccc(C(F)(F)F)c2)CCO1` (stereo not shown) [SC-141, 2-(4-Chlorophenyl)-2-methyl-4-[[3-(trifluoromethyl)phenyl]sulfonyl]-tetrahydro-pyran], with “A (%-Inhibition >95%)”; and `CC1(S(=O)(=O)c2cccc(C(F)(F)F)c2)CCOC(c2ccc(S(C)(=O)=O)c(F)c2)C1` (stereo not shown) [SC-144, 2-(3-Fluoro-4-methylsulfonyl-phenyl)-4-methyl-4-[[3-(trifluoromethyl)phenyl]sulfonyl]-tetrahydro-pyran], with “A (%-Inhibition >95%)”. Same read-out and setting: as for `CC1(S(=O)(=O)c2cccc(C(F)(F)F)c2)CCOC(c2cc(F)ccc2S(C)(=O)=O)C1` (stereo not shown) [SC-204, 2-(5-Fluoro-2-methylsulfonyl-phenyl)-4-methyl-4-[[3-(trifluoromethyl)phenyl]sulfonyl]-tetrahydro-pyran], the entry is “A (%-Inhibition >95%)”; as for `CC1(S(=O)(=O)c2cccc(C(F)(F)F)c2)CCOC(c2ccc(S(C)(=O)=O)c(F)c2)C1` (stereo not shown) [SC-209, 2-(3-Fluoro-4-methylsulfonyl-phenyl)-4-methyl-4-[[3-(trifluoromethyl)phenyl]sulfonyl]-tetrahydro-pyran], “B (%-Inhibition >75% up to ≦95%)”; as for `CC1(S(=O)(=O)c2cccc(C(F)(F)F)c2)CCOC(c2ccc(F)c(S(C)(=O)=O)c2)C1` (stereo not shown) [SC-213, 2-(4-Fluoro-3-methylsulfonyl-phenyl)-4-methyl-4-[[3-(trifluoromethyl)phenyl]sulfonyl]-tetrahydro-pyran], “B (%-Inhibition >75% up to ≦95%)”. Still for that read-out and setting: as for `CN(C)CC1(S(=O)(=O)c2cccc(C(F)(F)F)c2)CCOC(c2ccc(Cl)cc2)C1` (stereo not shown) [SC-214, [[2-(4-Chlorophenyl)-4-[[3-(trifluoromethyl)phenyl]sulfonyl]-tetrahydro-pyran-4-yl]-methyl]-dimethyl-amine], the entry is “A (%-Inhibition >95%)”; as for `CN(C)CC1(S(=O)(=O)c2cccc(C(F)(F)F)c2)CCOC(c2ccc(Cl)cc2)C1` (stereo not shown) [SC-215, [[2-(4-Chlorophenyl)-4-[[3-(trifluoromethyl)phenyl]sulfonyl]-tetrahydro-pyran-4-yl]-methyl]-dimethyl-amine], “C (%-Inhibition >40% up to ≦75%)”.

As for `COCC1(S(=O)(=O)c2cccc(C(F)(F)F)c2)CCOC(c2ccc(Cl)cc2)C1` (stereo not shown) [SC-216, 2-(4-Chlorophenyl)-4-(methoxymethyl)-4-[[3-(trifluoromethyl)phenyl]sulfonyl]-tetrahydro-pyran], the “Activity Category: %-Inhib (CaV2.2) @3 μM @30 mM KCl” value is recorded as “B (%-Inhibition >75% up to ≦95%)”. Still for that read-out and setting: then `COCC1(S(=O)(=O)c2cccc(C(F)(F)F)c2)CCOC(c2ccc(Cl)cc2)C1` (stereo not shown) [SC-217, 2-(4-Chlorophenyl)-4-(methoxymethyl)-4-[[3-(trifluoromethyl)phenyl]sulfonyl]-tetrahydro-pyran], with “C (%-Inhibition >40% up to ≦75%)”.

Still in this assay, the particulars now being: HEK293, 3 μM test compound, 30 mM KCl assay buffer (inactivated channel state), HEK293 cells; read-out: Activity Category: %-Inhib (CaV2.2) @3 μM @30 mM KCl.
`CC1(S(=O)(=O)c2cccc(C(F)(F)F)c2)CCOC(c2ccc(S(C)(=O)=O)cc2)C1` (stereo not shown) [SC-112, 4-Methyl-2-(4-methylsulfonyl-phenyl)-4-[[3-(trifluoromethyl)phenyl]sulfonyl]-tetrahydro-pyran]: the inhibition at 3 µM is greater than 95%. Turning to `CC1(S(=O)(=O)c2cccc(C(F)(F)F)c2)CCOC(c2ccc(Cl)cc2S(C)(=O)=O)C1` (stereo not shown) [SC-114, 2-(4-Chloro-2-methylsulfonyl-phenyl)-4-methyl-4-[[3-(trifluoromethyl)phenyl]sulfonyl]-tetrahydro-pyran], the inhibition at 3 µM is 75 to 95%. Turning to `CC(C)c1ccc(C(F)(F)F)cc1S(=O)(=O)C1CCOC(c2ccc(Cl)cc2)C1` (stereo not shown) [SC-118, 2-(4-Chlorophenyl)-4-[[2-isopropyl-5-(trifluoromethyl)-phenyl]sulfonyl]-tetrahydro-pyran], the inhibition at 3 µM was 40 to 75%.

With `CC1(S(=O)(=O)c2cccc(C(F)(F)F)c2)CCOCC1c1ccc(Cl)cc1` (stereo not shown) [SC-120, 3-(4-Chlorophenyl)-4-methyl-4-[[3-(trifluoromethyl)phenyl]sulfonyl]-tetrahydro-pyran], the inhibition at 3 µM fell in the range of 75 to 95%. `CC1(c2ccc(Cl)cc2)CC(S(=O)(=O)c2cccc(C(F)(F)F)c2)CCO1` (stereo not shown) [SC-140, 2-(4-Chlorophenyl)-2-methyl-4-[[3-(trifluoromethyl)phenyl]sulfonyl]-tetrahydro-pyran]: the inhibition at 3 µM lay within 75 to 95%. Still for that read-out and setting: as for `Cc1ccc(S(C)(=O)=O)cc1C1CC(C)(S(=O)(=O)c2cccc(C(F)(F)F)c2)CCO1` (stereo not shown) [SC-200, 4-Methyl-2-(2-methyl-5-methylsulfonyl-phenyl)-4-[[3-(trifluoromethyl)phenyl]sulfonyl]-tetrahydro-pyran], the figure is 75 to 95%; as for `CC1(S(=O)(=O)c2cccc(C(F)(F)F)c2)CCOC(c2cc(C(F)(F)F)cc(S(C)(=O)=O)c2)C1` (stereo not shown) [SC-202, 4-Methyl-2-[3-methylsulfonyl-5-(trifluoromethyl)-phenyl]-4-[[3-(trifluoromethyl)phenyl]sulfonyl]-tetrahydro-pyran], greater than 95%. Still for that read-out and setting: as for `CC1(S(=O)(=O)c2cccc(C(F)(F)F)c2)CCOC(c2cc(F)ccc2S(C)(=O)=O)C1` (stereo not shown) [SC-205, 2-(5-Fluoro-2-methylsulfonyl-phenyl)-4-methyl-4-[[3-(trifluoromethyl)phenyl]sulfonyl]-tetrahydro-pyran], the figure is 75 to 95%. Take `Cc1cc(C2CC(C)(S(=O)(=O)c3cccc(C(F)(F)F)c3)CCO2)ccc1S(C)(=O)=O` (stereo not shown) [SC-206, 4-Methyl-2-(3-methyl-4-methylsulfonyl-phenyl)-4-[[3-(trifluoromethyl)phenyl]sulfonyl]-tetrahydro-pyran]: the inhibition at 3 µM was greater than 95%.

For `CC1(S(=O)(=O)c2cccc(C(F)(F)F)c2)CCOC(c2ccc(S(C)(=O)=O)c(F)c2)C1` (stereo not shown) [SC-208, 2-(3-Fluoro-4-methylsulfonyl-phenyl)-4-methyl-4-[[3-(trifluoromethyl)phenyl]sulfonyl]-tetrahydro-pyran], the inhibition at 3 µM was greater than 95%. For `Cc1ccc(C2CC(C)(S(=O)(=O)c3cccc(C(F)(F)F)c3)CCO2)cc1S(C)(=O)=O` (stereo not shown) [SC-210, 4-Methyl-2-(4-methyl-3-methylsulfonyl-phenyl)-4-[[3-(trifluoromethyl)phenyl]sulfonyl]-tetrahydro-pyran], the inhibition at 3 µM was greater than 95%. On the same count and under the same terms, then `CC1(S(=O)(=O)c2cccc(C(F)(F)F)c2)CCOC(c2ccc(F)c(S(C)(=O)=O)c2)C1` (stereo not shown) [SC-212, 2-(4-Fluoro-3-methylsulfonyl-phenyl)-4-methyl-4-[[3-(trifluoromethyl)phenyl]sulfonyl]-tetrahydro-pyran], with greater than 95%; and `CC1(S(=O)(=O)c2cccc(C(F)(F)F)c2)CCOC(c2ccc(S(C)(=O)=O)cc2Cl)C1` (stereo not shown) [SC-218, 2-(2-Chloro-4-methylsulfonyl-phenyl)-4-methyl-4-[[3-(trifluoromethyl)phenyl]sulfonyl]-tetrahydro-pyran], with greater than 95%; and `CC1(S(=O)(=O)c2cccc(C(F)(F)F)c2)CCOC(c2cccc(S(C)(=O)=O)c2)C1` (stereo not shown) [SC-220, 4-Methyl-2-(3-methylsulfonyl-phenyl)-4-[[3-(trifluoromethyl)phenyl]sulfonyl]-tetrahydro-pyran], with 75 to 95%.
